Laboratory results: patent US9920074B2 (ACEA BIOSCIENCES INC., priority 2013, dated 2018)

What was measured:
[1] = biological target: T1, Btk (Tyr223) phosphorylation in Ramos cells (Homo sapiens, UniProt Q06187); assay: Western blotting assay for Btk (Example 73); format: cell-based; details: 45 min, 6 μg/mL anti-IgM, read-out: Btk Inhibition
T1 construct: endogenous in cells; host or cells: Ramos cells (ATCC)
Description: (§1) All cell lines were obtained from the American Type Culture Collection and were maintained at 37° C. with 5% CO2. Ramos cell line was maintained in media supplemented with 10% fetal bovine serum, penicillin (100 units/mL) and streptomycin (100 μg/mL). NK-92 cell line was maintained in media supplemented with 10% fetal bovine serum and 10% horse serum, penicillin (100 units/mL) and streptomycin (100 μg/mL), IL-2 10 ng/mL. Goat F(ab′)2 Anti-Human IgM-UNLB was obtained from SouthernBiotech. IL-2 was obtained from Peprotech.
Ramos cells were treated with compounds at indicated doses for 45 min at room temperature, followed by stimulation of 6 μg/mL of anti-IgM for 30 min, and then lysed. Western blots were performed on the cell lysate using Phospho-Btk (Tyr223), Phospho-Btk (Tyr551), Btk, Phospho-PLCγ2 (Tyr1217), PLCγ2, Phospho-p44/42 MAPK (Erk1/2) (Thr202/Tyr204) and p44/42 MAPK (Erk1/2) antibodies (Cell Signaling Technology). The density of blotting band was acquired using ImageJ software, and the IC50 of Btk (Tyr223) phosphorylation was fitted using a non-linear regression model by GraphPad Prism.

[2] = tested on: Stat5 phosphorylation in NK-92 cells; assay: Western blotting assay for Stat5; format: cell-based; details: NK92, 1 hour, IL-2 stimulation, read-out: Stat5 inhibition
Description: as §1
NK-92 cells were treated with compounds at the dosed indicated for 1 hour in incubator, followed by the IL-2 stimulation for 15 minutes. Cells were then collected and lysed to prepare the cellular extraction. Western blots were performed on cell lysate using Phospho-Jak3, Jak3, Phospho-Stat5, Stat5 antibodies (Cell Signaling Technology). The intensity of blotting band was acquired using Image Lab (Bio-Rad) software, and the IC50 of target was generated with GraphPad Prism.

T1 sequence (Q06187 whole entry): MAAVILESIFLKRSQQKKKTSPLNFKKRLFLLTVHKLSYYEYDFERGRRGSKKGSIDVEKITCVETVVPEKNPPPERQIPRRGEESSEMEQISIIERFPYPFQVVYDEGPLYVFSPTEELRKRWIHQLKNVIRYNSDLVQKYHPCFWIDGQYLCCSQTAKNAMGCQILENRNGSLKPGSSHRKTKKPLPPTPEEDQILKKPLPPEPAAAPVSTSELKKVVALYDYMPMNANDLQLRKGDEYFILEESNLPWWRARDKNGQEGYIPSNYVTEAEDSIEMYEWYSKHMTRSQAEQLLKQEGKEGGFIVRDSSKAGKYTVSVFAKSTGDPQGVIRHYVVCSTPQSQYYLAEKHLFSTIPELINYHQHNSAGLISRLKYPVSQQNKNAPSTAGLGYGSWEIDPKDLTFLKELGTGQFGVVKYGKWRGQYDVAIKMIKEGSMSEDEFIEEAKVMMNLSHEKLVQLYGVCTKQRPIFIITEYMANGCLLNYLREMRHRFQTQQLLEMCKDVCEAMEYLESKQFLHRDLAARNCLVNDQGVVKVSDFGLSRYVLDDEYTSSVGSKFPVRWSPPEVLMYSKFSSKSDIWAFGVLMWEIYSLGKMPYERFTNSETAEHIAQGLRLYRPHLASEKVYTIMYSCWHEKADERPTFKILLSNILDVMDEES

For C=CC(=O)Nc1cccc(Oc2nc(Nc3ccc(N(C)[C@H]4CCN(S(C)(=O)=O)C4)cc3)nc3[nH]cnc23)c1 [Compound I-71a, (S)—N-(3-(2-(4-(methyl(1-(methylsulfonyl)pyrrolidin-3-yl)amino)phenylamino)-9H-purin-6-yloxy)phenyl)acrylamide], the IC50 [1] was ≤ 10 nM.
For C=CC(=O)Nc1cccc(Oc2nc(Nc3ccc(N4CCN(CCOC)CC4)cc3)nc3[nH]ccc23)c1 [Compound I-47a, N-(3-(2-(4-(4-(2-methoxyethyl)piperazin-1-yl)phenylamino)-7H-pyrrolo[2,3-d]pyrimidin-4-yloxy)phenyl)acrylamide], the IC50 [1] was ≤ 10 nM and the IC50 [2] was 200 to 400 nM.
With C=CC(=O)Nc1cccc(Oc2nc(Nc3ccc(N(C)[C@H]4CCN(S(C)(=O)=O)C4)cc3)ncc2OC)c1 [Compound I-60a, (S)—N-(3-(5-methoxy-2-(4-(methyl(1-(methylsulfonyl)pyrrolidin-3-yl)amino)phenylamino)pyrimidin-4-yloxy)phenyl)acrylamide] the IC50 [1] was ≤ 10 nM.
C=CC(=O)Nc1cccc(Oc2nc(Nc3ccc(N4CCN(CCS(C)(=O)=O)CC4)cc3)nc3[nH]cnc23)c1 [Compound I-69a, N-(3-(2-(4-(4-(2-(methylsulfonyl)ethyl)piperazin-1-yl)phenylamino)-9H-purin-6-yloxy)phenyl)acrylamide] gave an IC50 [1] of 10 to 100 nM.
For C=CC(=O)Nc1cccc(Oc2nc(Nc3ccc(N(C)CCOC)cc3)nc3[nH]ccc23)c1 [Compound I-41a, N-(3-(2-(4-((2-methoxyethyl)(methyl)amino)phenylamino)-7H-pyrrolo[2,3-d]pyrimidin-4-yloxy)phenyl)acrylamide], the IC50 [1] was 10 to 100 nM and the IC50 [2] was 200 to 400 nM.
For C=CC(=O)Nc1cccc(Oc2nc(Nc3ccc(N(C)[C@@H]4CCN(C(C)=O)C4)cc3)ncc2OC)c1 [Compound I-72a, (R)—N-(3-(2-(4-((1-acetylpyrrolidin-3-yl)(methyl)amino)phenylamino)-5-methoxypyrimidin-4-yloxy)phenyl)acrylamide], the IC50 [1] was ≤ 10 nM.
C=CC(=O)Nc1cccc(Oc2nc(Nc3ccc4c(c3)CCN4C(C)=O)ncc2OC)c1 [Compound I-56a, N-(3-(2-(1-acetylindolin-5-ylamino)-5-methoxypyrimidin-4-yloxy)phenyl)acrylamide] was tested, and the IC50 [1] was ≤ 10 nM and the IC50 [2] was 200 to 400 nM.
In the case of C=CC(=O)Nc1cccc(Oc2nc(Nc3cccc4c3CCN4CCOC)ncc2OC)c1 [Compound I-28a, N-(3-(5-methoxy-2-(1-(2-methoxyethyl)indolin-4-ylamino)pyrimidin-4-yloxy)phenyl)acrylamide], the IC50 [1] is reported as 10 to 100 nM.
C=CC(=O)Nc1cccc(Oc2nc(Nc3ccc(N[C@@H]4CCN(CCF)C4)cc3)ncc2F)c1 [Compound I-19, (R)—N-(3-(5-fluoro-2-(4-(1-(2-fluoroethyl)pyrrolidin-3-ylamino)phenylamino)pyrimidin-4-yloxy)phenyl)acrylamide] was tested, and the IC50 [1] was ≤ 10 nM.
In the case of C=CC(=O)Nc1cccc(Oc2nc(Nc3ccc(OCCOC)c(F)c3)nc3[nH]ccc23)c1 [Compound I-24a, N-(3-(2-(3-fluoro-4-(2-methoxyethoxy)phenylamino)-7H-pyrrolo[2,3-d]pyrimidin-4-yloxy)phenyl)acrylamide], the IC50 [1] is reported as 10 to 100 nM.
With C=CC(=O)Nc1cccc(Oc2nc(Nc3ccc(N(C)CCOC)cc3)ncc2OC)c1 [Compound I-35a, N-(3-(5-methoxy-2-(4-((2-methoxyethyl)(methyl)amino)phenylamino)pyrimidin-4-yloxy)phenyl)acrylamide] the IC50 [1] was ≤ 10 nM and the IC50 [2] was 200 to 400 nM.
In the case of C=CC(=O)Nc1cccc(Oc2nc(Nc3ccc4c(ccn4CCOC)c3)ncc2OC)c1 [Compound I-45a, N-(3-(5-methoxy-2-(1-(2-methoxyethyl)-1H-indol-5-ylamino)pyrimidin-4-yloxy)phenyl)acrylamide], the IC50 [1] is reported as 10 to 100 nM and the IC50 [2] is reported as 200 to 400 nM.
C=CC(=O)Nc1cccc(Oc2nc(Nc3ccc4c(c3)CS(=O)(=O)N4)ncc2OC)c1 [Compound I-70a, N-(3-((2-((2,2-dioxido-1,3-dihydrobenzo[c]isothiazol-5-yl)amino)-5-methoxypyrimidin-4-yl)oxy)phenyl)acrylamide] gave an IC50 [1] of 10 to 100 nM.
For C=CC(=O)Nc1cccc(Oc2nc(Nc3ccc(N(C)CCOC)nc3)ncc2OC)c1 [Compound I-33a, N-(3-(5-methoxy-2-(6-((2-methoxyethyl)(methyl)amino)pyridin-3-ylamino)pyrimidin-4-yloxy)phenyl)acrylamide], the IC50 [1] was 10 to 100 nM and the IC50 [2] was ≥ 400 nM.
C=CC(=O)Nc1cccc(Oc2nc(Nc3ccc(N4CCN(C(C)=O)CC4)cc3)nc3[nH]cnc23)c1 [Compound I-68a, N-(3-(2-(4-(4-acetylpiperazin-1-yl)phenylamino)-9H-purin-6-yloxy)phenyl)acrylamide] gave an IC50 [1] of 10 to 100 nM.
C=CC(=O)Nc1cccc(Oc2nc(Nc3ccc(N(CC)[C@H]4CCN(CCOC)C4)cc3)ncc2OC)c1 [Compound I-51a, (S)—N-(3-(2-(4-(ethyl(1-(2-methoxyethyl)pyrrolidin-3-yl)amino)phenylamino)-5-methoxypyrimidin-4-yloxy)phenyl)acrylamide] was tested, and the IC50 [1] was ≤ 10 nM and the IC50 [2] was ≥ 400 nM.
With C=CC(=O)Nc1cccc(Nc2nc(Nc3cccc4c3CCN4CCOC)ncc2OC)c1 [Compound I-29a, N-(3-(5-methoxy-2-(1-(2-methoxyethyl)indolin-4-ylamino)pyrimidin-4-ylamino)phenyl)acrylamide] the IC50 [1] was ≥ 100 nM.
In the case of C=CC(=O)Nc1cccc(Oc2nc(Nc3ccc(N4CCN(CCOC)CC4)cc3)nc3[nH]cnc23)c1 [Compound I-65a, N-(3-(2-(4-(4-(2-methoxyethyl)piperazin-1-yl)phenylamino)-9H-purin-6-yloxy)phenyl)acrylamide], the IC50 [1] is reported as ≤ 10 nM.
C=CC(=O)Nc1cccc(Oc2nc(Nc3ccc(N[C@H]4CCN(CCF)C4)cc3)nc3[nH]ccc23)c1 [Compound I-27a, (S)—N-(3-(2-(4-(1-(2-fluoroethyl)pyrrolidin-3-ylamino)phenylamino)-7H-pyrrolo[2,3-d]pyrimidin-4-yloxy)phenyl)acrylamide] was tested, and the IC50 [1] was ≤ 10 nM.
For C=CC(=O)Nc1cccc(Oc2nc(Nc3ccc(N[C@H]4CCN(C(C)=O)C4)cc3)ncc2OC)c1 [Compound I-66a, (S)—N-(3-(2-(4-((1-acetylpyrrolidin-3-yl)amino)phenylamino)-5-methoxypyrimidin-4-yloxy)phenyl)acrylamide], the IC50 [1] was ≤ 10 nM.
For C=CC(=O)Nc1cccc(Oc2nc(Nc3ccc(N(C)[C@H]4CCN(CCOC)C4)cc3OC)ncc2OC)c1 [Compound I-55a, (S)—N-(3-(5-methoxy-2-(2-methoxy-4-((1-(2-methoxyethyl)pyrrolidin-3-yl)(methyl)amino)phenylamino)pyrimidin-4-yloxy)phenyl)acrylamide], the IC50 [1] was ≥ 100 nM.
Molecule C=CC(=O)Nc1cccc(Oc2nc(Nc3ccc(N[C@H]4CCN(CCOC)C4)cc3)nc3[nH]cnc23)c1 [Compound I-67a, (S)—N-(3-(2-(4-(1-(2-methoxyethyl)pyrrolidin-3-ylamino)phenylamino)-9H-purin-6-yloxy)phenyl)acrylamide] has an IC50 [1] of 10 to 100 nM.
In the case of C=CC(=O)Nc1cccc(Oc2nc(Nc3ccc(N[C@H]4CCN(S(C)(=O)=O)C4)cc3)nc3[nH]ccc23)c1 [Compound I-62a, (S)—N-(3-(2-(4-(1-(methylsulfonyl)pyrrolidin-3-ylamino)phenylamino)-7H-pyrrolo[2,3-d]pyrimidin-4-yloxy)phenyl)acrylamide], the IC50 [1] is reported as ≤ 10 nM.
For C=CC(=O)Nc1cccc(Oc2nc(Nc3ccc(N[C@H]4CCN(C(C)=O)C4)cc3)nc3[nH]ccc23)c1 [Compound I-61a, (S)—N-(3-(2-(4-(1-acetylpyrrolidin-3-ylamino)phenylamino)-7H-pyrrolo[2,3-d]pyrimidin-4-yloxy)phenyl)acrylamide], the IC50 [1] was ≤ 10 nM.
In the case of C=CC(=O)Nc1cccc(Oc2nc(Nc3ccc4c(c3)CCN4S(C)(=O)=O)ncc2OC)c1 [Compound I-59a, N-(3-(5-methoxy-2-(1-(methylsulfonyl)indolin-5-ylamino)pyrimidin-4-yloxy)phenyl)acrylamide], the IC50 [1] is reported as ≤ 10 nM.
C=CC(=O)Nc1cccc(Oc2nc(Nc3ccc(N(C)[C@H]4CCN(S(C)(=O)=O)C4)cc3)nc3[nH]ccc23)c1 [Compound I-63a, (S)—N-(3-(2-(4-(methyl(1-(methylsulfonyl)pyrrolidin-3-yl)amino)phenylamino)-7H-pyrrolo[2,3-d]pyrimidin-4-yloxy)phenyl)acrylamide] was tested, and the IC50 [1] was ≤ 10 nM.
In the case of C=CC(=O)Nc1cccc(Oc2nc(Nc3ccc(N(C)[C@H]4CCN(CCF)C4)cc3)nc3[nH]ccc23)c1 [Compound I-26a, (S)—N-(3-(2-(4-((1-(2-fluoroethyl)pyrrolidin-3-yl)(methyl)amino)phenylamino)-7H-pyrrolo[2,3-d]pyrimidin-4-yloxy)phenyl)acrylamide], the IC50 [1] is reported as 10 to 100 nM.
For C=CC(=O)Nc1cccc(Oc2nc(Nc3ccc(N(C)[C@H]4CCN(C(C)=O)C4)cc3)nc3[nH]ccc23)c1 [Compound I-64a, (S)—N-(3-(2-(4-((1-acetylpyrrolidin-3-yl)(methyl)amino)phenylamino)-7H-pyrrolo[2,3-d]pyrimidin-4-yloxy)phenyl)acrylamide], the IC50 [1] was ≤ 10 nM.
